Patent US20260132127A1, “NOVEL SPIRO COMPOUND” (MITSUBISHI TANABE PHARMA CORPORATION, priority 2021, published 2026)
pIC50: −log10 of the molar value.

Target: T1, human TRH-DE (Homo sapiens, UniProt Q9UKU6)
T1 construct: expressed in transfected cells; host or cells: Expi 293 cells (transient expression), membrane fraction
T1 sequence (Q9UKU6 1-1069): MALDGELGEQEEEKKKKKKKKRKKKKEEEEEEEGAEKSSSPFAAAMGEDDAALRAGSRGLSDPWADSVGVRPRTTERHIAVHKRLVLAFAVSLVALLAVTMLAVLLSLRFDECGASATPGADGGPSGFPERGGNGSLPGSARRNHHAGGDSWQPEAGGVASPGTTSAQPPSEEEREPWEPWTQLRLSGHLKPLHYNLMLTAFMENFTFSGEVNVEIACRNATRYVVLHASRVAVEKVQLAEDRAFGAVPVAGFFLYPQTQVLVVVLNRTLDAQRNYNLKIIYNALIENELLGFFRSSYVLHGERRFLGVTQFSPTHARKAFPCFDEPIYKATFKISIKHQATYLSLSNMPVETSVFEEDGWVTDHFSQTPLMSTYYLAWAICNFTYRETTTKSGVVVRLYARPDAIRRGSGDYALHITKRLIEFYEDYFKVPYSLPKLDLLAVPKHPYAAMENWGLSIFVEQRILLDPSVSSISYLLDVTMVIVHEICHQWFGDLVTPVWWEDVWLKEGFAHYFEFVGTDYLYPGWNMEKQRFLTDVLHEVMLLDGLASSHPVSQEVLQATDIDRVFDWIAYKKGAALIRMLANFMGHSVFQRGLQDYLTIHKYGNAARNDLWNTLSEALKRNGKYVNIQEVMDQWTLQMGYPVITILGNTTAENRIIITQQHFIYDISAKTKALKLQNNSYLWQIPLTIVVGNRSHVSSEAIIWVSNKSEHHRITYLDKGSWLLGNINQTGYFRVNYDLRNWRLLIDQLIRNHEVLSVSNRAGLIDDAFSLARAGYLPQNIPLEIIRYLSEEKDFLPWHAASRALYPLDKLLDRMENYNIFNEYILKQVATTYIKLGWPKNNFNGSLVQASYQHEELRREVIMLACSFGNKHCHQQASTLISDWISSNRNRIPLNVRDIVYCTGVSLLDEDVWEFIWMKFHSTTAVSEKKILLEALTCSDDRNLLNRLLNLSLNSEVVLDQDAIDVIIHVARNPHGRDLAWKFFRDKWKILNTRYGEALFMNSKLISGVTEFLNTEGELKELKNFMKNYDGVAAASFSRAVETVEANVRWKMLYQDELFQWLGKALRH
Test: TRH-DE inhibition test (RapidFire MS measurement of product Cyclo (His-Pro))
Format: biochemical
Conditions: membrane fraction of Expi 293 cells expressing human TRH-DE; 10 μM TRH substrate; room temperature, 2 hours; 16-point concentration test
Method in brief: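 Membrane fraction from Expi 293 cells transiently expressing human TRH-DE, at 4 μg/ml in phosphate buffer pH 7.4 with 200 μM bacitracin, reacted with compound and 10 μM substrate for 2 h at room temperature. Cyclo(His-Pro) measured by RapidFire MS against an isotope internal standard. IC50 from 16-point curves.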

Row | pIC50 | SMILES
1 | 9.00 | C[C@@H]1COc2cc(N(C)CC3CCCCC3)ncc2C(=O)N1C1CC2(C1)CN(S(=O)(=O)c1ccccc1F)C2 [Example 138]
2 | 8.70 | C[C@@H]1COc2cc(N(C)Cc3ccccc3)ncc2C(=O)N1C1CC2(C1)CN(S(=O)(=O)c1ccccc1F)C2 [Example 139]
3 | 9.00 | C[C@@H]1COc2cc(Nc3ccc(F)cc3)ncc2C(=O)N1C1CC2(C1)CN(S(=O)(=O)c1ccccc1F)C2 [Example 140]
4 | 9.00 | C[C@@H]1COc2cc(N(C)c3ccc(F)cc3)ncc2C(=O)N1C1CC2(C1)CN(S(=O)(=O)c1ccccc1F)C2 [Example 141]
5 | 9.00 | C[C@@H]1COc2cc(N3CCCC3)ncc2C(=O)N1C1CC2(C1)CN(S(=O)(=O)c1ccccc1F)C2 [Example 142]
6 | 9.00 | C[C@@H]1COc2cc(N3CC[C@H](F)C3)ncc2C(=O)N1C1CC2(C1)CN(S(=O)(=O)c1ccccc1F)C2 [Example 143]
7 | 9.00 | C[C@@H]1COc2cc(N3CC[C@@H](F)C3)ncc2C(=O)N1C1CC2(C1)CN(S(=O)(=O)c1ccccc1F)C2 [Example 144]
8 | 9.00 | C[C@@H]1COc2cc(N3CC(F)(F)C(F)(F)C3)ncc2C(=O)N1C1CC2(C1)CN(S(=O)(=O)c1ccccc1F)C2 [Example 147]
9 | > 9.00 | C[C@@H]1COc2cc(N3C[C@H]4C[C@H]4C3)ncc2C(=O)N1C1CC2(C1)CN(S(=O)(=O)c1ccccc1F)C2 [Example 148]
10 | 9.00 | C[C@@H]1COc2cc(N3CCCCC3)ncc2C(=O)N1C1CC2(C1)CN(S(=O)(=O)c1ccccc1F)C2 [Example 149]
11 | 9.00 | C[C@@H]1COc2cc(N3CCCC[C@@H]3C)ncc2C(=O)N1C1CC2(C1)CN(S(=O)(=O)c1ccccc1F)C2 [Example 150]
12 | 9.00 | C[C@@H]1CCCCN1c1cc2c(cn1)C(=O)N(C1CC3(C1)CN(S(=O)(=O)c1ccccc1F)C3)[C@H](C)CO2 [Example 151]
13 | 9.00 | CC1CCN(c2cc3c(cn2)C(=O)N(C2CC4(C2)CN(S(=O)(=O)c2ccccc2F)C4)[C@H](C)CO3)CC1 [Example 153]
14 | 8.70 | COC1CCN(c2cc3c(cn2)C(=O)N(C2CC4(C2)CN(S(=O)(=O)c2ccccc2F)C4)[C@H](C)CO3)CC1 [Example 154]
15 | 9.00 | C[C@@H]1COc2cc(N3CCC(F)CC3)ncc2C(=O)N1C1CC2(C1)CN(S(=O)(=O)c1ccccc1F)C2 [Example 155]
16 | 8.70 | C[C@@H]1COc2cc(N3CCC(F)(F)CC3)ncc2C(=O)N1C1CC2(C1)CN(S(=O)(=O)c1ccccc1F)C2 [Example 156]
17 | 9.00 | C[C@@H]1COc2cc(N3CCCC(F)(F)C3)ncc2C(=O)N1C1CC2(C1)CN(S(=O)(=O)c1ccccc1F)C2 [Example 157]
18 | 8.22 | C[C@@H]1COc2cc(N3CCN(C)CC3)ncc2C(=O)N1C1CC2(C1)CN(S(=O)(=O)c1ccccc1F)C2 [Example 158]
19 | 9.00 | C[C@@H]1COc2cc(N3CCCCCC3)ncc2C(=O)N1C1CC2(C1)CN(S(=O)(=O)c1ccccc1F)C2 [Example 159]
20 | 9.00 | C[C@@H]1COc2cc(N3CCCOCC3)ncc2C(=O)N1C1CC2(C1)CN(S(=O)(=O)c1ccccc1F)C2 [Example 160]
21 | 9.00 | C[C@@H]1CNc2nc(N3C[C@H]4C[C@H]4C3)ccc2C(=O)N1C1CC2(C1)CN(S(=O)(=O)c1ccccc1F)C2 [Example 161]
22 | 8.70 | C[C@@H]1CNc2nc(N3CC[C@H](F)C3)ccc2C(=O)N1C1CC2(C1)CN(S(=O)(=O)c1ccccc1F)C2 [Example 162, (3R)-4-[2-(2-fluorophenyl)sulfonyl-2-azaspiro[3.3]heptan-6-yl]-8-[(3S)-3-fluoropyrrolidin-1-yl]-3-methyl-2,3-dihydro-H-pyrido[2,3-e][1,4]diazepin-5-one]
23 | 8.10 | COc1ccc2c(n1)OC[C@@H](C)N(C1CC3(C1)CN(S(=O)(=O)c1ccccc1F)C3)C2=O [Example 163, (3R)-4-[2-(2-fluorophenyl)sulfonyl-2-azaspiro[3.3]heptan-6-yl]-8-methoxy-3-methyl-2,3-dihydropyrido[3,2-f][1,4]oxazepin-5-one]
24 | 8.70 | COc1cc2c(cn1)C(=O)N(C1CC3(C1)CN(S(=O)(=O)c1ccccc1F)C3)[C@H](C)CO2 [Example 165]
25 | 8.30 | COc1cnc2c(n1)OC[C@@H](C)N(C1CC3(C1)CN(S(=O)(=O)c1ccccc1F)C3)C2=O [Example 166]

Row | pIC50 | SMILES
26 | 7.80 | COc1nc2c(cc1F)C(=O)N(C1CC3(C1)CN(S(=O)(=O)c1ccccc1F)C3)[C@H](C)CO2 [Example 167, (3R)-7-fluoro-4-[2-(2-fluorophenyl)sulfonyl-2-azaspiro[3.3]heptan-6-yl]-8-methoxy-3-methyl-2,3-dihydropyrido[3,2-f][1,4]oxazepin-5-one]
27 | 9.00 | C[C@@H]1COc2nc(N3CC[C@H](F)C3)ncc2C(=O)N1C1CC2(C1)CN(S(=O)(=O)c1ccccc1F)C2 [Example 169]
28 | 8.15 | C[C@@H]1COc2c(cnn2C)C(=O)N1C1CC2(C1)CN(S(=O)(=O)c1ccccc1F)C2 [Example 170, (6R)-5-[2-(2-fluorophenyl)sulfonyl-2-azaspiro[3.3]heptan-6-yl]-1,6-dimethyl-6,7-dihydropyrazolo[4,3-f][1,4]oxazepin-4-one]
29 | 8.15 | C[C@@H]1COc2ncc(Br)cc2C(=O)N1C1CC2(C1)CN(S(=O)(=O)c1ccccc1F)C2 [Example 171]
30 | 6.96 | C[C@@H]1CCN2CCOC[C@@H]2C(=O)N1C1CC2(C1)CN(S(=O)(=O)c1ccccc1F)C2 [Example 172]
31 | 7.92 | Cc1nc2c(s1)C(=O)N(C1CC3(C1)CN(S(=O)(=O)c1ccccc1F)C3)[C@H](C)CO2 [Example 175]
32 | 7.89 | C[C@@H]1COc2nc(C(F)F)sc2C(=O)N1C1CC2(C1)CN(S(=O)(=O)c1ccccc1F)C2 [Example 176]
33 | 7.92 | C[C@@H]1COc2nc(C(C)(F)F)sc2C(=O)N1C1CC2(C1)CN(S(=O)(=O)c1ccccc1F)C2 [Example 178]
34 | 8.40 | C[C@@H]1COc2nc(C3CC3)sc2C(=O)N1C1CC2(C1)CN(S(=O)(=O)c1ccccc1F)C2 [Example 180]
35 | 8.22 | C[C@@H]1COc2nc(C3(F)CC3)sc2C(=O)N1C1CC2(C1)CN(S(=O)(=O)c1ccccc1F)C2 [Example 181]
36 | 6.81 | C[C@H]1COc2nc(C3(F)CC3)sc2C(=O)N1C1CC2(C1)CN(S(=O)(=O)c1ccccc1F)C2 [Example 182]
37 | 8.30 | C[C@@H]1COc2nc(C3(C(F)(F)F)CC3)sc2C(=O)N1C1CC2(C1)CN(S(=O)(=O)c1ccccc1F)C2 [Example 183]
38 | 7.80 | Cc1cc2n(n1)CC[C@@H](C)N(C1CC3(C1)CN(S(=O)(=O)c1ccccc1F)C3)C2=O [Example 184]
39 | 7.62 | Cc1nn2c(c1C)C(=O)N(C1CC3(C1)CN(S(=O)(=O)c1ccccc1F)C3)[C@H](C)CC2 [Example 185]
40 | 7.68 | C[C@@H]1CCn2nc(Cl)cc2C(=O)N1C1CC2(C1)CN(S(=O)(=O)c1ccccc1F)C2 [Example 186]
41 | 7.70 | C[C@@H]1CCn2nc(C(C)(F)F)cc2C(=O)N1C1CC2(C1)CN(S(=O)(=O)c1ccccc1F)C2 [Example 187]
42 | 8.10 | C[C@@H]1CCn2nc(C3CC3)cc2C(=O)N1C1CC2(C1)CN(S(=O)(=O)c1ccccc1F)C2 [Example 188]
43 | 7.17 | C[C@H]1CCn2nc(C3CC3)cc2C(=O)N1C1CC2(C1)CN(S(=O)(=O)c1ccccc1F)C2 [Example 189]
44 | 7.96 | C[C@@H]1CCn2nc(C3(F)CC3)cc2C(=O)N1C1CC2(C1)CN(S(=O)(=O)c1ccccc1F)C2 [Example 190]
45 | 7.07 | C[C@H]1CCn2nc(C3(F)CC3)cc2C(=O)N1C1CC2(C1)CN(S(=O)(=O)c1ccccc1F)C2 [Example 191]
46 | 8.05 | C[C@@H]1CCn2nc(C3(C(F)(F)F)CC3)cc2C(=O)N1C1CC2(C1)CN(S(=O)(=O)c1ccccc1F)C2 [Example 192]
47 | 7.60 | C[C@@H]1CCn2nc(C(F)(F)F)cc2C(=O)N1C1CC2(C1)CN(S(=O)(=O)c1ccccc1F)C2 [Example 193]
48 | 7.44 | C[C@@H]1CCn2ncc(Cl)c2C(=O)N1C1CC2(C1)CN(S(=O)(=O)c1ccccc1F)C2 [Example 194]
49 | 7.46 | C[C@@H]1CCn2ncc(Br)c2C(=O)N1C1CC2(C1)CN(S(=O)(=O)c1ccccc1F)C2 [Example 195]
50 | 7.82 | C[C@@H]1CCn2nc(F)c(Br)c2C(=O)N1C1CC2(C1)CN(S(=O)(=O)c1ccccc1F)C2 [Example 196]
